According to patent US20250205189A1, “DIETARY BUTYRATE FOR TREATING OR PREVENTING AN ALLERGIC DISORDER” (SOCIETE DES PRODUITS NESTLE S.A., priority 2018, published 2025):

Tests used:
[1] = test system: mast cell protease-1 (MCPT-1); experiment: Serum ELISA of mast cell protease-1 after oral OVA challenge; type: in vivo, mice; conditions: 600 μg butyrate per mL infant formula, FIG. 6
female BALB/c mice = experiment: Cumulative clinical score after oral OVA challenge in mice with pre-existing milk (BLG) allergy; type: in vivo; conditions: 600 μg butyrate per mL infant formula ad libitum; 12 oral OVA challenges; compared to Allergic group 1; FIG. 3
Excerpt: An allergy to milk was induced in female BALB/c mice aged eight weeks by sensitization via epicutaneous application of the milk protein β-lactoglobulin (BLG) (“Allergic group”). At this stage all three “Allergic groups” ([…], […] and Allergic group 3) were subjected to the same sensitization via epicutaneous application of the milk protein β-lactoglobulin (BLG) treatment. The non-allergic negative control group received phosphate buffered saline (PBS) only (“Control group”). Three patches were applied in total, each separated by a week without patch in between. Six days following the final skin patch, mice were orally challenged with BLG following a conventional procedure known to those skilled in the art. Serum was processed for ELISA and BLG-specific Immunoglobulin E (IgE) and BLG-specific Immunoglobulin G1 (IgG1) were determined (FIGS. 1 and 2 respectively).
Following the induction of milk allergy, “Control group” and “Allergic group 1” received infant formula for nutritional management of cow's milk allergy (the extensively hydrolyzed infant formula available commercially under the Trademark Althéra® was used in this example) reconstituted in the drinking water for a three-week period. […]

GATA-3 = conditions: cited from earlier work
[2] = test system: OVA-specific IgE, OVA-specific IgG1; experiment: Serum ELISA of OVA-specific IgE and IgG1 after oral OVA challenge; type: in vivo, mice; conditions: 600 μg butyrate per mL infant formula, compared across the three Allergic groups

For `CCCC(=O)[O-].[Na+]` [sodium butyrate], the “Mast cell protease-1 (MCPT-1)” value [1] is given as “reduction in mast cell protease-1”, the “Allergic symptoms (cumulative clinical score)” value (female BALB/c mice) is given as “reduction of allergic symptoms” and the “GATA-3 or FoxP3 expression” value (GATA-3; 0.1 mM, CD4+ T cells under Th2 polarizing conditions (Furusawa 2013)) is given as “insufficient to influence GATA-3 or FoxP3 expression”. The Gata3 expression (GATA-3; 1 mM in vitro, Th2 polarized CD4+ T cells (Kespohl 2017)) was “sufficient to ameliorate Gata3 expression”, the “OVA-specific IgE level” value ([2]; FIG. 4) was “similar” and the “OVA-specific IgG1 level” value ([2]; FIG. 5) was “similar”.
